Experimental data published in PubChem BioAssay AID179 (DTP/NCI, 2004).
Several values for one entry are separate records, joined by “and”; a condition that tells them apart may be missing. Equal entries are not always repeated. Activity calls are given as the source filed them.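 How the source made its calls: active means compounds giving half or more protection of infected cells from virus-caused growth loss, again on retest; inactive means the rest.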 Where a SMILES comes first, the peptide text is derived from it.

System: CEM cells HIV-1 protection, formazan growth assay
Experiment: NCI AIDS Antiviral Assay
Settings: for IC50: measured here: growth of uninfected CEM cells
How it was run: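 CEM (human) cells, HIV-1 infected vs uninfected, 5-point dosing, formazan growth read-out. Retest threshold 50% protection.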

| SMILES | EC50 | IC50 | outcome |
| --- | --- | --- | --- |
| O=C1CSC(c2ccccc2)N1c1ccc(-n2c(-c3ccccc3)nc3ccccc3c2=O)cc1 (stereo not drawn) | > 200 µM | 35.5 µM | – |
| Nc1c(Cl)ncnc1NCCCNc1ncnc(Cl)c1N | – | – | inactive |
| N#CC(C#N)=Cc1cc(O)c(O)c(O)c1 | > 200 µM | 31.6 µM | – |
| C=C(C)C#CC1(O)C=C(OC)C(OC)=CC1=O (stereo not drawn) | > 200 µM | 20.9 µM | – |
| COc1ccc(OC)c(/C=C/c2ccccc2)c1 | 0.0631 µM | 110 µM | – |
| Cc1nc(Nc2ccc([N+](=O)[O-])cc2)sc1C(=O)/C=C/c1ccc(N(C)C)cc1 | > 33.1 µM | 18.6 µM | – |
| Cc1ccc2c(c1)C1(C)OC(CC(N)C1O)O2 (stereo not drawn) | – | – | inactive |
| CCOC(=O)C1(Br)CCN(S(=O)(=O)c2ccc(C)cc2)c2ccccc2C1=O (stereo not drawn) | > 200 µM | 1.51 µM | – |
| CCc1cccc(C(C)C)c1NC(=O)C(=O)C1C(=O)NC(=O)NC1=O | – | – | inactive |
| Cc1ccccc1NC(=O)c1c(C)oc2c1C(=O)c1ccccc1C2=O | > 39.8 µM | > 39.8 µM | – |
| Cc1cc(=O)[nH]c(NN2C(Cl)C(=O)C2c2cccc(O)c2)n1 (stereo not drawn) | > 295 µM | 1.86 µM | – |
| O=c1[nH]c2cccnc2c(=O)n1O | > 200 µM | 69.2 µM | – |
| O=CC[C@@H]1c2ccccc2C=C[C@]12C=CC(=O)CC2 | > 74.1 µM | 53.7 µM | – |
| Cn1cc(NC(=O)Nc2cc(C(=O)Nc3cc(C(=O)Nc4ccc(S(=O)(=O)O)c5cc(S(=O)(=O)O)ccc45)n(C)c3)n(C)c2)cc1C(=O)Nc1cc(C(=O)Nc2ccc(S(=O)(=O)O)c3cc(S(=O)(=O)O)ccc23)n(C)c1 | 12.3 µM | 61.7 µM | – |
| Cc1ccc(SSC(=S)Nc2ccccc2)cc1 | – | – | inactive |
| CCc1cccc(C)c1N1C(=O)C(=O)C(c2nc3ccccc3o2)C(=O)C1=O | > 331 µM | 66.1 µM | – |
| Cc1cn2c(nc1=O)OC1C(O)C(CCl)OC12 (stereo not drawn) | > 200 µM | > 200 µM | – |
| O=C(O)/C=C/S(=O)(=O)O | > 200 µM | > 200 µM | – |
| C/C=C(/CCO)[Si](C)(C)C | – | – | inactive |
| N=C(c1ccccc1)N1CCCCC1 | – | – | inactive |
| CNC1C(OC2C(OC3C(O)C(O)C(N=C(N)N)C(O)C3N=C(N)N)OC(C)C2(O)CO)OC(CO)C(O)C1O (stereo not drawn) | – | – | inactive |
| OCC1C2C=CC(O2)[C@H]1CO (stereo partly drawn) | – | – | inactive |
| O=C(CC(O)(C(F)(F)F)C(F)(F)F)C(CCCl)C(O)(C(F)(F)F)C(F)(F)F (stereo not drawn) | > 200 µM | 33.1 µM | – |

| SMILES | EC50 | IC50 | outcome |
| --- | --- | --- | --- |
| O=C1C(=O)N(C23CC4CC(CC(C4)C2)C3)C(=S)N1c1ccccc1 | > 200 µM | 110 µM | – |
| CN1C(=O)CC(c2cccc(C3CC(=O)N(C)C3=O)n2)C1=O (stereo not drawn) | > 832 µM | > 832 µM | – |
| CNC(=O)OCc1nc(N=[N+]=[N-])n(C)c1COC(=O)NC | > 200 µM | 42.7 µM | – |
| CN(CCN(C)C(=O)CCn1ccc(=O)[nH]c1=O)C(=O)CCn1ccc(=O)[nH]c1=O | > 32.4 µM | > 32.4 µM | – |
| O=C1NC2OC(CO)C(O)C2O1 (stereo not drawn) | > 200 µM | > 200 µM | – |
| C[C@@]12C[C@@H](OC(=O)[C@]1(C)O)[C@@H]([C@]1(O)CC[C@H]3[C@@H]4C[C@H]5O[C@]56CC=CC(=O)[C@]6(C)[C@H]4CC[C@@]31C)C2 | 0.02 µM | 0.324 µM | – |
| COc1cc2c(cc1OC)C1Cc3ccccc3CCN1CC2 (stereo not drawn) | > 200 µM | 126 µM | – |
| COc1ccc(NC(=S)/C(=C(/[O-])c2ccc(C)cc2)[n+]2ccccc2)cc1 | – | – | inactive |
| CCN(CC)CCCNc1ncc(C)c2c1c1ccc3c(O)cccc3c1n2C | > 13.2 µM | 0.24 µM | – |
| COc1nc2c(c(=O)n1C)NC(C(O)C(O)CO)C=N2 (stereo not drawn) | 182 µM and 174 µM | > 200 µM | – |
| Cc1nn(C(=O)Cc2ccccc2)c2c1C(c1ccc3ccccc3c1O)SC(N)=N2 (stereo not drawn) | > 200 µM | 24 µM | – |
| O=C(O)[C@@H](NS(=O)(=O)c1ccc(F)cc1)c1ccccc1 | – | – | inactive |
| Cc1cc2c(cc1C)N1C(Cl)=C3CCCCC3=C(C#N)C1N2 (stereo not drawn) | > 20 µM | 0.562 µM | – |
| NCCCCC1NC(=O)C(CO)NC(=O)C(Cc2cnc[nH]2)NC(=O)CNC(=O)C(Cc2c[nH]c3ccccc23)NC(=O)C(Cc2c[nH]c3ccccc23)NC(=O)C(Cc2ccccc2)NC1=O (stereo not drawn) (cyclo(GHSKFWW); configuration not given here) | > 50.1 µM | > 50.1 µM | – |
| CNC(=O)c1n[nH][nH]c1=O | > 200 µM | > 200 µM | – |
| CC(C)/C(Cl)=N\OC(=O)Nc1cccc(Cl)c1 | > 200 µM | 5.01 µM | – |
| CN1CCN(c2ccc3c(c2)NCC(=O)N3)CC1 | > 200 µM | 117 µM | – |
| O=NNc1ccc2ccccc2n1 | > 200 µM | > 200 µM | – |
| CC(=O)OC1C=CS(=O)(=O)C1 (stereo not drawn) | > 200 µM | 15.8 µM | – |
| N#CC12Cc3cc4c(cc3-c3cccc(c31)CCN2C(=O)c1ccccc1)OCO4 (stereo not drawn) | – | – | inactive |
| Cc1c(/C=N/NS(=O)(=O)c2ccccc2)no[n+]1[O-] | > 891 µM | > 200 µM | – |
| COC(=O)C1=C(C)NC2(C)SC1C(C)C2C(=O)OC (stereo not drawn) | > 871 µM | 490 µM | – |
| N=C1N(c2ccccc2)C(=O)C23CCCC2C13N1CCOCC1 (stereo not drawn) | > 219 µM | > 219 µM | – |

| SMILES | EC50 | IC50 | outcome |
| --- | --- | --- | --- |
| COC(=O)[C@]12CSC[C@H]1C[C@H](c1ccc(N(C)C)cc1)N2 | > 200 µM | > 200 µM | – |
| CC(C)(c1ccccc1)c1ccc(OC#N)cc1 | > 57.5 µM | > 57.5 µM | – |
| COc1ccc(S(=O)(=O)c2ccc(C(=O)O)cc2)cc1 | > 200 µM | > 200 µM | – |
| COc1cccc(C2CC(=O)c3cccn32)c1 (stereo not drawn) | – | – | inactive |
| COC(=O)CCC(=O)Nc1cc(C)ccc1C | > 1070 µM | > 1070 µM | – |
| O=C1CC2(C(=O)O1)C1C(=O)OC(=O)C1C1C=CC=NN12 (stereo not drawn) | > 200 µM | > 200 µM | – |
| COC1=C(C)C2CC(=O)OC3CC4C(C)CC(O)C(=O)[C@]4(C)C(C1=O)[C@@]32C (stereo partly drawn) | – | – | inactive |
| Cc1ccc2c(c1)C(=O)N(CC[P+](c1ccccc1)(c1ccccc1)c1ccccc1)C2=O | > 200 µM | 30.9 µM | – |
| COC1(OC)C2(Cl)CCC1(Cl)C(OC(C)=O)C2 (stereo not drawn) | > 200 µM | 145 µM | – |
| Cc1c(-c2ccccc2)c(=O)oc2ccc(Cl)cc12 | – | – | inactive |
| COC(=O)N/N=C(/c1nc2ccc([N+](=O)[O-])cc2[nH]c1=O)C(O)c1ccc(OC)c(OC)c1 (stereo not drawn) | > 110 µM | > 110 µM | – |
| Nc1nc(NNc2ccccc2F)cc(=O)[nH]1 | > 200 µM | 28.2 µM | – |
| O=C(CC1(O)C(=O)Nc2c(Cl)ccc(Cl)c21)c1ccc(Cl)cc1Cl (stereo not drawn) | > 12.9 µM | > 12.9 µM | – |
| CNC(=O)OCC1=CC(=O)C(OC)=CC1=O | > 200 µM | 10 µM | – |
| CC(=O)Nc1cc(Cl)cc(Cl)c1O | > 200 µM | 53.7 µM | – |
| Cc1ccc2c3ccc4c(c3n(C)c2c1)C(=O)C=CC4=O | > 100 µM | 1.82 µM | – |
| O=C1C(=O)N(c2ccc(Cl)cc2Cl)C(=O)C(=O)C1c1nc2ccccc2o1 | > 85.1 µM | > 85.1 µM | – |
| CCN(CC)c1ccc2c(c1)N=C1N=CC=CN1C2(c1ccc(N(C)C)cc1)c1ccc(N(C)C)cc1 | – | – | inactive |
| O=C1C2C=CC(n3[nH]c(=O)n(Cc4ccccc4)c3=O)CC2C(=O)N1c1cccc(Cl)c1 (stereo not drawn) | > 398 µM | > 398 µM | – |
| CCN(CC)CC(=O)Nc1ccc(Cc2ccc(NC(=O)CN(CC)CC)cc2)cc1 | > 200 µM | 16.2 µM | – |
| C=C1C(=O)O[C@@H]2CC(C)C3C(O)CC(O)[C@@]3(C)C[C@H]12 (stereo partly drawn) | > 933 µM | 14.1 µM | – |
| O=CC(NC(=O)N(CCCl)N=O)C(O)C(O)C(O)CO (stereo not drawn) | > 398 µM | > 398 µM | – |
| CCOC(=O)c1[nH]cnc1/N=N/N(C)N | > 200 µM | 21.4 µM | – |

| SMILES | EC50 | IC50 | outcome |
| --- | --- | --- | --- |
| CC1(C)/C(=N\O)C2(C#N)CCC1C2 (stereo not drawn) | > 200 µM | 166 µM | – |
| O=[N+]([O-])C(=C/c1ccccc1)/C(=C\c1ccccc1)[N+](=O)[O-] | > 200 µM | 15.5 µM | – |
| C/C=C1/CN2CC[C@]34C=C(CO)C1CC23Nc1ccccc14 (stereo partly drawn) | > 123 µM | > 123 µM | – |
| COC(=O)CCC(C)C1CCC2[C@@H]3CC[C@@H]4CC(O)CC[C@]4(C)C3CC[C@]12C (stereo partly drawn) | > 25.7 µM | > 25.7 µM | – |
| NNC(=S)N/N=C(/C(=O)Nc1ccc(Cl)c(Cl)c1)C(C1OC(=O)c2ccccc21)[N+](=O)[O-] (stereo not drawn) | > 501 µM | 257 µM | – |
| O=C(Cn1c(-c2ccccc2)cc2ccccc21)N1CCCC1 | > 200 µM | 126 µM | – |
| O=S(O)CCCCCSSSCCCCCS(=O)O | – | – | inactive |
| N#CC1(C#N)C2CCCCC23OC(=N)C1(C#N)C(c1ccccc1)O3 (stereo not drawn) | > 200 µM | 5.62 µM | – |
| Clc1ccccc1-c1nn2c(CCCCCCCCc3nnc4sc(-c5ccccc5Cl)nn34)nnc2s1 | > 200 µM | 105 µM | – |
| COC(=O)C(=O)C(C(=O)C(=O)Nc1ccc(C)cc1)c1nc2ccc(C(=O)c3ccccc3)cc2[nH]c1=O (stereo not drawn) | > 26.3 µM | > 26.3 µM | – |
| O=[N+]([O-])c1ccc(N/N=C2/CC3=C2CCCCCCCCCC3)c([N+](=O)[O-])c1 | > 100 µM | > 100 µM | – |
| CCC(C)C(NC(=O)c1ccccc1SC(=O)CCCC[n+]1ccccc1)C(=O)O (stereo not drawn) | 23.4 µM | > 200 µM | – |
| CC(C)(C)c1noc2c1C(=O)c1ccccc1-2 | > 200 µM | 83.2 µM | – |
| COc1ccc(-c2onc(-c3ccc([N+](=O)[O-])cc3)c2C2=NCCN2)cc1 | > 12.9 µM | > 12.9 µM | – |
| COc1ccc(N2C(=O)/C(=C\c3cccc(Oc4ccccc4)c3)SC2c2ccccc2)cc1 (stereo not drawn) | > 200 µM | 8.51 µM | – |
| COC(=O)c1sc(C(=O)OC)c2c1CS(=O)C2 | – | – | inactive |
| COC(=O)[C@@H](O)[C@]1(C(=O)OC)C2O[C@@H](OC)[C@@H]1CCCCCC[C@H]2O | > 200 µM | > 200 µM | – |
| NC(CSSCC(NC(=O)c1ccccc1)C(=O)O)C(=O)O (stereo not drawn) | > 200 µM | > 200 µM | – |
| CC(C)(C)OC[C@H](O)CC#N | > 200 µM | > 200 µM | – |
| CCOC(=O)/C=C/SCCC(=O)OC | > 1150 µM | 891 µM | – |
| CCOc1csc([C@H]2CCC3[C@@H]4CC=C5C[C@@H](O)CC[C@]5(C)C4CC[C@@]32C)n1 (stereo partly drawn) | > 3.39 µM | > 3.39 µM | – |
